Experiments:
mouse pericytes [1] = assay: Zinc concentration in pericytes (Zinpyr-1 fluorescence); assay type: cell-based
Excerpt: FIG. 20 is a set of confocal microscope images of groups of mouse pericytes, which are not treated (CTL) or treated with finally-selected amlexanox (AMX) (PDEi), in which, to measure a zinc concentration, fluorescence intensity was detected by treating the cells with a fluorescent dye (Zinpyr-1) for detecting zinc ions.

all PDE isoforms = assay: HTS using all PDE isoforms as targets; assay type: biochemical
Method: (§1) Compounds included in the library of 800 FDA-approved drugs were diluted 1/4 from a concentration of 100 μM and dispensed into each well in 96-well plates, and mixed with a PDE reactant to allow a PDE reaction with the drug for 1 hour at a constant temperature.
The experiment was carried out in the same manner as used in screening of the FDA-approved drug library. […] Each of the screening library drugs were diluted 1/4 from 100 μM and dispensed into each well in 96-well plates, and mixed with a PDE reactant, followed by allowing a reaction between the drug and PDE for 1 hour for storage. After a stop solution was mixed with a AMP detection agent, the mixture was dispensed at 20 μl per well to allow a reaction for 10 minutes, followed by immediately measuring luminescence, and the experiment was performed according to a protocol provided by the kit used herein.
The first selection started with PDE3 as a target, and after candidate drugs were selected, all PDE isoforms were tested.

cathepsin B = assay: Lysosomal function activity in astrocytes: degree of hydrolysis of cathepsin B; assay type: cell-based, mouse; settings: bafilomycin A1-treated mouse astrocytes
Method: (§2) Samples stained with enzymatic dyes such as cathepsin B and cathepsin L were administered into the cell culture to allow a reaction for 30 minutes, and changes in activity of lysosomes in cells were confirmed using a confocal microscope.
(§3) Astrocytes were stained with a fluorescence-tagged lysosomal protein, and the degrees of hydrolysis of cathepsin B and cathepsin L, which are lysosomal proteins, were analyzed.
(§4) FIG. 21 is a set of time-dependent confocal microscope images of mouse astrocytes, which are treated with bafilomycin A1, which is a vATPase inhibitor, to assess the degree of hydrolysis of cathepsin B (top) and cathepsin L (bottom).

cathepsin L = assay: Lysosomal function activity in astrocytes: degree of hydrolysis of cathepsin L; assay type: cell-based, mouse; settings: bafilomycin A1-treated mouse astrocytes
Method: as §2, §3, §4

P301L tau = assay: Tau accumulation on AMX treatment (western blotting); assay type: cell-based
Method: (§5) Each type of cell was cultured under the culture conditions, a cell culture was restored, followed by preparing a particulate fraction in a 50 mM Tris buffer. Proteins obtained from the cell culture developed in a SDS polyacrylamide gel, transferred to an immobilon-P membrane (Millipore, USA), and reacted with antibodies overnight. Next day, western blots were washed, reacted with peroxidase-linked secondary antibodies at room temperature for 1 hour, followed by staining bands with 4-chloro-1-naphthol.
(§6) FIG. 16 is a graph representing the percent activity (% activity) according to the concentrations of finally selected amlexanox (AMX) for various PDE isoforms, and FIGS. 17 and 18 show western blotting images representing the amyloid beta expression pattern and G93A SOD-1 and P301L tau expression when amyloid beta-accumulated pericytes and astrocytes are treated with the finally selected amlexanox (AMX).

PDE3 = assay: HTS drug screening for PDE3 (PDELight HTS cAMP Phosphodiesterase Kit, luminescence); assay type: biochemical; settings: compared with conventional drugs
Method: For drug screening, high-throughput screening (HTS) was used.
In addition, as described above, in the present invention, to screen materials for treating neurodegenerative diseases such as Alzheimer's disease and Lou Gehrig's disease, among PDE isoforms, PDE3 was selected as a target, and an optimized concentration to be used in the experiment was selected to construct a drug screening system as shown in FIG. 9.
as §1
For drug efficacy screening for PDE inhibition, HTS was used. cAMP-based screening was conducted with an FDA-approved drug library and a Selleckchem library based on the conventional PDE inhibitor. The experiment was carried out in the same manner as used in screening of the FDA-approved drug library. Compared with cilostazol, which is known as a PDE3 inhibitor, drugs with high inhibitory activity were selected. […] After a stop solution was mixed with a AMP detection agent, the mixture was dispensed at 20 μl per well to allow a reaction for 10 minutes, followed by immediately measuring luminescence, and the experiment was performed according to a protocol provided by the kit used herein.

mouse pericytes [2] = assay: Lysosome pH in bafilomycin A1-treated pericytes (LysoSensor, confocal microscope); assay type: cell-based; settings: cells alkalized by bafilomycin A1
Excerpt: A system that can visualize changes in intracellular lysosome pH with LysoSensor, which is a pH-sensitive lysosomal dye, in mouse pericytes using a confocal microscope was established (refer to Example 6) to observe whether amlexanox (AMX) is involved in the pH change of lysosomes in cells.
FIG. 19 is a set of time-dependent confocal microscope images (left) of mouse pericytes when being treated with Bafilomycin A1, which is a vATPase inhibitor, and then stained with LysoSensor, and quantified data (right) thereof.
Here, the images on the left side of FIG. 19 are obtained by treating mouse pericytes with bafilomycin A1, which is a vATPase inhibitor, and analyzing the cells using LysoSensor over time by a confocal microscope (top), and by treating the bafilomycin A1-treated mouse pericytes with the finally selected amlexanox (AMX) and analyzing the cells using LysoSensor over time by a confocal microscope (bottom).

[3] = tested on: amyloid beta-accumulated pericytes and astrocytes; assay: Amyloid beta expression pattern on AMX treatment (western blotting); assay type: cell-based, mouse; settings: amyloid beta injected and accumulated in pericytes and astrocytes, then AMX
Method: (§7) For astrocyte culture, first, cerebral cortices (neocortices) were dissociated from murine fetuses (3 weeks old), and the obtained cortical tissue was divided into single cells. […] New cells were cultured and used each time without passaging.
as §5, §6

G93A SOD-1 = G93A SOD-1 accumulation on AMX treatment (western blotting); assay type: cell-based
Method: as §5, §6

astrocytes = assay: H2O2 oxidative damage cell death in astrocytes (LDH method); assay type: cell-based; settings: H2O2, after 24 hours
Method: as §7
Specifically, cell death caused by oxidative damage was induced by injecting H2O2 into astrocytes, a cell culture model similar to the animal model with a neurodegenerative disease such as Alzheimer's disease or Lou Gehrig's disease was manufactured. To confirm the cell protective effect of amlexanox (AMX) in the cell model manufactured as described above, an untreated H2O2 control and an experimental group produced by administering amlexanox (AMX) into the untreated H2O2 control were prepared, and after 24 hours, cell death was quantitatively assessed by a LDH method.

CC(C)c1ccc2oc3nc(N)c(C(=O)O)cc3c(=O)c2c1 [amlexanox, 2-amino-7-isopropyl-5-oxo-5H-[1]benzopyrano[2,3-b] pyridine-3-carboxylic acid]
concentration of zinc in the cell (mouse pericytes [1]): restored and increased to a normal level
reducing efficacy for all PDE isoforms (all PDE isoforms): excellent reducing efficacy
time to restore lysosomal activity of cathepsin B to the original state (cathepsin B): ≤ 60 min
time to restore lysosomal activity of cathepsin L to the original state (cathepsin L): ≤ 60 min
accumulation of toxic protein Tau (P301L tau): reduced
inhibitory effect specific for PDE3 (PDE3): significant inhibitory effect
time to restore (acidify) the lysosome pH environment to the original state (mouse pericytes [2]): ≤ 60 minutes
aggregation of amyloid beta protein [3]: inhibited
accumulation of toxic protein G93A SOD-1 (G93A SOD-1): reduced
cell death (astrocytes): up to 40%
